Measurements published in ChEMBL document CHEMBL4000236, “Nardonaphthalenones A and B from the roots and rhizomes of Nardostachys chinensis Batal” (Bioorg Med Chem Lett, 2017).
Calls of active or inactive are those of the source. The calls are words filed in the database; no cut-off is given here.

How the values were obtained:
Format in all cases: cell-based
[1] = biological target: Sodium-dependent serotonin transporter (Homo sapiens) (UniProt P31645); experiment: Modulation of human SERT expressed in HEK293 cells at 10 uM using APP+ as substrate by fluorescence assay relative to control
[2] = biological target: Sodium-dependent serotonin transporter (Homo sapiens) (UniProt P31645); experiment: Modulation of human SERT expressed in HEK293 cells at 1 uM using APP+ as substrate by fluorescence assay relative to control
[3] = biological target: Sodium-dependent serotonin transporter (Homo sapiens) (UniProt P31645); experiment: Modulation of human SERT expressed in HEK293 cells at 0.1 uM using APP+ as substrate by fluorescence assay relative to control

Chain of Sodium-dependent serotonin transporter (Homo sapiens) (P31645 whole entry, looked up): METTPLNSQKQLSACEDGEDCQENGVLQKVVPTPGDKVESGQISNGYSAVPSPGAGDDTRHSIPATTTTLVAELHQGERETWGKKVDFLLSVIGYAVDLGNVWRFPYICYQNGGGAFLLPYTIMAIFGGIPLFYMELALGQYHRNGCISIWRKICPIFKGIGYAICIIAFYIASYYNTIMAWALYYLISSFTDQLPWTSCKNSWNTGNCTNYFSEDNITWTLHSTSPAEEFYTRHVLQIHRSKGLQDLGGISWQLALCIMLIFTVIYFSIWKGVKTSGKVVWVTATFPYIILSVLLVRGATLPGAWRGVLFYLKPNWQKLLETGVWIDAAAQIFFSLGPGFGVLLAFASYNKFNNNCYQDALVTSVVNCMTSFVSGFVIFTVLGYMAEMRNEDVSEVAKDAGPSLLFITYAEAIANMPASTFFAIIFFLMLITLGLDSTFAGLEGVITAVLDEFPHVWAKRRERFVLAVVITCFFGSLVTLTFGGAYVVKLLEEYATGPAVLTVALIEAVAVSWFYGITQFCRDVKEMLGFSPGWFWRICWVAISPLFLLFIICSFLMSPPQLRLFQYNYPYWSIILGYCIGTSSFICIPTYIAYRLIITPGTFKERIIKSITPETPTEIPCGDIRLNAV

Compound | fold change (FC) [1] | fold change (FC) [2] | fold change (FC) [3] | Activity [1] | Activity [2] | Activity [3]
CC1=CC(=O)CC(C)(C)[C@@H]1CC[C@@H](C)OC(=O)CC(C)C | 1.07 | 1.05 | 1.03 | – | – | –
COC1=CC(C)(C)c2cc(OC)c(C)cc2C1=O | 0.942 | 1 | 0.956 | – | – | –
CC(=O)CC/C=C(C)/C=C/[C@H]1C(C)=CC(=O)CC1(C)C | 1.1 | 1.07 | 1.06 | – | – | –
C/C1=C\CC[C@@H](C)CCO[C@@H]2O[C@H](CO[C@@H]3OC[C@](O)(COC1=O)[C@H]3O)[C@@H](O)[C@H](O)[C@H]2O | 1.06 | 1.08 | 1.04 | – | – | –
COC(=O)C1=CO[C@@H](O[C@@H]2O[C@H](CO)[C@@H](O)[C@H](O)[C@H]2O)[C@H]2[C@@H](COC(C)=O)CC[C@H]12 | 0.989 | 1.07 | 0.965 | – | – | –
CN1c2ccccc2C(NCCCCCCC(=O)O)c2ccc(Cl)cc2S1(=O)=O (stereo not given) | – | 1.18 | – | – | – | –
COC1=CC(C)(C)c2cc(OC)c(C)c(OC)c2C1=O | 1.05 | 1.05 | 1.07 | – | – | –
CC(=O)/C=C/C1=C(C)CCCC1(C)C | 1.01 | 1.07 | 0.989 | – | – | –
CC(=O)OC[C@H]1O[C@@H](OCC2=CO[C@@H](OC(=O)CC(C)C)C3C2C[C@H](O)[C@H]3CO)[C@H](O)[C@H](O)[C@@H]1O (stereo not given in full) | – | – | – | inactive | inactive | inactive
CC(C)CC(=O)OCC1=CO[C@@H](OC(=O)CC(C)C)C2C1CC(=O)[C@H]2C (stereo not given in full) | – | – | – | inactive | inactive | inactive
COC(=O)C1=CO[C@@H](O[C@@H]2O[C@H](CO)[C@@H](O)[C@H](O)[C@H]2O)[C@H]2[C@@H](CO)CC[C@H]12 | – | – | – | inactive | inactive | inactive
C[C@H]1CC[C@@H]2C(C(=O)O)=CO[C@@H](O[C@@H]3O[C@H](CO)[C@@H](O)[C@H](O)[C@H]3O)[C@H]21 | 1.07 | 1.08 | 1.05 | – | – | –
CC(C)CC(=O)O[C@@H]1OC=C(CO[C@@H]2O[C@H](CO)[C@@H](O)[C@H](O)[C@H]2O)C2C[C@H](O)[C@@H](CO)C21 (stereo not given in full) | 0.933 | 0.981 | 0.975 | – | – | –
CC(=O)/C=C/C1(O)C(C)(C)CCCC1(C)O (stereo not given) | 1.09 | 1.07 | 0.934 | – | – | –
